From patent US20250163038A1, “CBL-B MODULATORS AND USES THEREOF” (Nimbus Clio, Inc., priority 2021, published 2025)
Read-outs that look alike come from different tables or passages of the source.

Tests used:
[1] = molecular target: T1, Recombinant human c-Cbl (aa 47-435) (Homo sapiens, UniProt P22681); assay: c-Cbl Biochemical Assay (TR-FRET); settings: hc-Cbl Biochemical Assay (TR-FRET); read-out: TR-FRET hcCbl IC50
T1 sequence (P22681 47-435): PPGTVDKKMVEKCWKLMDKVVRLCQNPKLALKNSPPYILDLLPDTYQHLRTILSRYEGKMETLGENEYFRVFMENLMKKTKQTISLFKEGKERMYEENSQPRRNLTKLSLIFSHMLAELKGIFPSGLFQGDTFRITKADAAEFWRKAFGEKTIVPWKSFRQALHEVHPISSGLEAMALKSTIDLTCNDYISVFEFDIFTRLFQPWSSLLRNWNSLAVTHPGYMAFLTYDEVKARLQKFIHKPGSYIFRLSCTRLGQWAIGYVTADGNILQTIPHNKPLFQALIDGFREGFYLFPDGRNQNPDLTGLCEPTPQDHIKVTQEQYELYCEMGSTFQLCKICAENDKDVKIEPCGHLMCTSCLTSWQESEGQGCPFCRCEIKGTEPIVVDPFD

[2] = system: Jurkat (clone E6-1) cells with NFAT luciferase reporter; assay: Jurkat reporter assay (NFAT Luciferase); format: cell-based; settings: Homo sapiens
[3] = molecular target: Recombinant human Cbl-b (aa 36-427) (Homo sapiens, UniProt Q13191); assay: Cbl-b Biochemical Assay (TR-FRET); settings: read-out: TR-FRET hCbl-b IC50
[4] = Jurkat NFAT luciferase reporter cells, anti-CD3 stimulation, 6 hr, read-out: Jurkat NFAT EC50

Chain of Recombinant human Cbl-b (aa 36-427) (Q13191 36-427): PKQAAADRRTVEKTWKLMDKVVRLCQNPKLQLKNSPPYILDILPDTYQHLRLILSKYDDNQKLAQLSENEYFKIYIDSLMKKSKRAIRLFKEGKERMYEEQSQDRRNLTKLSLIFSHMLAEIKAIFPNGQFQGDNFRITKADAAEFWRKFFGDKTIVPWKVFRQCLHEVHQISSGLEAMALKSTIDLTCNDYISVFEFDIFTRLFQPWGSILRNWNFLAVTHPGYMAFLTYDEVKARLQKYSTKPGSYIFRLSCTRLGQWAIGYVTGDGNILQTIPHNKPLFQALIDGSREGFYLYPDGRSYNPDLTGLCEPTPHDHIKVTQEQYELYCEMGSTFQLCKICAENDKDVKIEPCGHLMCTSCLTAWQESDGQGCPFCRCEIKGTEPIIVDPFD

Structure (SMILES)	IC50 [1] [nM]	EC50 [2, 4] [µM]	IC50 [3] [nM]	EC50 ([2]; Jurkat, 6 h, read-out: Jurkat NFAT EC50 (μM)) [µM]
Cn1cnnc1-c1cc(F)ccc1-c1cccc(-c2nc3cc(CNCC4(F)CCC4)cc(C(F)(F)F)c3o2)c1 [HW-2, 1-(2-(4′-Fluoro-2′-(4-methyl-4H-1,2,4-triazol-3-yl)-[1,1′-biphenyl]-3-yl)-7-(trifluoromethyl)benzo[d]oxazol-5-yl)-N-((1-fluorocyclobutyl)methyl)methanamine]	< 200	0.2 to 1	< 200	–
COc1cc(CNC[C@@H]2CCCO2)cc2nc(-c3cccc(-c4ccc(F)cc4-c4nncn4C)c3)oc12 [FS-2, (S)-1-(2-(4′-Fluoro-2′-(4-methyl-4H-1,2,4-triazol-3-yl)-[1,1′-biphenyl]-3-yl)-7-methoxybenzo[d]oxazol-5-yl)-N-((tetrahydrofuran-2-yl)methyl)methanamine]	< 200	< 0.2	< 200	–
Cn1cnnc1-c1ccccc1-c1cccc(-c2nc3cc(CN4CCC5(CC5)C4)cc(C(F)(F)F)c3[nH]2)c1 [ACF-1, 5-((5-Azaspiro[2.4]heptan-5-yl)methyl)-2-(2′-(4-methyl-4H-1,2,4-triazol-3-yl)-[1,1′-biphenyl]-3-yl)-7-(trifluoromethyl)-1H-benzo[d]imidazole]	10000 to 50000	1 to 10	200 to 1000	–
Cn1cnnc1-c1cc(F)ccc1-c1cccc(-c2nc3cc(CN[C@@H]4C[C@H](O)C4(C)C)cc(C(F)(F)F)c3o2)c1 [GP-2, (1S,3R)-3-(((2-(4′-Fluoro-2′-(4-methyl-4H-1,2,4-triazol-3-yl)-[1,1′-biphenyl]-3-yl)-7-(trifluoromethyl)benzo[d]oxazol-5-yl)methyl)amino)-2,2-dimethylcyclobutan-1-ol, Formic Acid]	< 200	0.2 to 1	< 200	–
Cn1cnnc1-c1ccccc1-c1cc(-c2nc3cc(CN4CCC5(CC5)C4)cc(C(F)(F)F)c3o2)nc(C2CC2)c1 [AAR-2, 5-{5-Azaspiro[2.4]-heptan-5-ylmethyl}-2-{6-cyclopropyl-4-[2-(4-methyl-1,2,4-triazol-3-yl)-phenyl]-pyridin-2-yl}-7-(trifluoromethyl)-1,3-benzoxazole]	1000 to 10000	1 to 10	< 200	–
Cn1cnnc1-c1cc(F)ccc1-c1cccc(-c2nc3cc(CN[C@H]4CCC[C@@H]4O)cc(C(F)(F)F)c3[nH]2)c1 [BN-2, (1S,2S)-2-(((2-(4′-Fluoro-2′-(4-methyl-4H-1,2,4-triazol-3-yl)-[1,1′-biphenyl]-3-yl)-7-(trifluoromethyl)-1H-benzo[d]imidazol-5-yl)methyl)amino)cyclopentan-1-ol]	1000 to 10000	0.2 to 1	< 200	–
COc1cc(CNCC2CCC2)cc2nc(-c3cccc(-c4ccc(F)cc4-c4nncn4C)c3)oc12 [FA-1, 1-Cyclobutyl-N-((2-(4′-fluoro-2′-(4-methyl-4H-1,2,4-triazol-3-yl)-[1,1′-biphenyl]-3-yl)-7-methoxybenzo[d]oxazol-5-yl)methyl)methanamine]	< 200	< 0.2	< 200	–
Cn1cnnc1-c1cc(F)ccc1-c1cccc(-c2nc3cc(CNCC(C)(C)O)c(F)c(F)c3o2)c1 [JD-1, 1-(((6,7-Difluoro-2-(4′-fluoro-2′-(4-methyl-4H-1,2,4-triazol-3-yl)-[1,1′-biphenyl]-3-yl)benzo[d]oxazol-5-yl)methyl)amino)-2-methylpropan-2-ol]	< 200	< 0.2	< 200	–
Cn1cnnc1-c1cc(F)ccc1-c1cccc(-c2nc3cc(CNC[C@H](O)C4CC4)cc(C(F)(F)F)c3o2)c1 (single isomer, unassigned) [DT-2]	< 200	< 0.2	< 200	–
Cn1cnnc1-c1cc(F)ccc1-c1cccc(-c2nc3cc(CN[C@@H]4CCC[C@@H]4F)cc(C(F)(F)F)c3o2)c1 [CW-5, (1R,2S)-2-Fluoro-N-((2-(4′-fluoro-2′-(4-methyl-4H-1,2,4-triazol-3-yl)-[1,1′-biphenyl]-3-yl)-7-(trifluoromethyl)benzo[d]oxazol-5-yl)methyl)cyclopentan-1-amine]	< 200	< 0.2	< 200	–
Cn1cnnc1-c1cc(F)ccc1-c1cccc(-c2nc3cc(CNCC4(C#N)CCOCC4)cc(C(F)(F)F)c3o2)c1 [DY-1, 4-((((2-(4′-Fluoro-2′-(4-methyl-4H-1,2,4-triazol-3-yl)-[1,1′-biphenyl]-3-yl)-7-(trifluoromethyl)benzo[d]oxazol-5-yl)methyl)amino)methyl)tetrahydro-2H-pyran-4-carbonitrile]	200 to 1000	0.2 to 1	< 200	–
COC(=O)c1ccc2oc(-c3cc(-c4ccc(F)cc4-c4nncn4C)cc(C4CC4)n3)nc2c1 [ADP-1, Methyl 2-{6-cyclopropyl-4-[4-fluoro-2-(4-methyl-1,2,4-triazol-3-yl)phenyl]pyridin-2-yl}-1,3-benzoxazole-5-carboxylate]	10000 to 50000	10 to 50	10000 to 50000	–
C[C@H]1CCCN(Cc2cc(C(F)(F)F)c3oc(-c4cc(-c5ccccc5-c5nncn5C)cc(C5CC5)n4)nc3c2)C1 [AAP-7, 2-{6-Cyclopropyl-4-[2-(4-methyl-1,2,4-triazol-3-yl)phenyl]pyridin-2-yl}-5-{[(3S)-3-methylpiperidin-1-yl]methyl}-7-(trifluoromethyl)-1,3-benzoxazole]	1000 to 10000	–	< 200	0.2 to 1
COC1(CNC2(c3cc(F)c4oc(-c5cc(-c6ccc(F)cc6-c6nncn6C)cc(C6CC6)n5)nc4c3)CC2)CCC1 [AGO-2, 1-(2-{6-Cyclopropyl-4-[4-fluoro-2-(4-methyl-1,2,4-triazol-3-yl)phenyl]pyridin-2-yl}-7-fluoro-1,3-benzoxazol-5-yl)-N-[(1-methoxycyclobutyl)methyl]cyclopropan-1-amine]	200 to 1000	0.2 to 1	< 200	–
CCNc1cc(-c2ccc(F)cc2-c2nncn2C)cc(-c2nc3cc(C(=O)OC)cc(C(F)(F)F)c3o2)n1 [AEK-2, Methyl 2-[6-(ethylamino)-4-[4-fluoro-2-(4-methyl-1,2,4-triazol-3-yl)-phenyl]-pyridin-2-yl]-7-(trifluoromethyl)-1,3-benzoxazole-5-carboxylate]	1000 to 10000	1 to 10	1000 to 10000	–
CC(=O)NCCNCc1cc(C(F)(F)F)c2oc(-c3cccc(-c4ccc(F)cc4-c4nncn4C)c3)nc2c1 [HD-2, N-(2-(((2-(4′-Fluoro-2′-(4-methyl-4H-1,2,4-triazol-3-yl)-[1,1′-biphenyl]-3-yl)-7-(trifluoromethyl)benzo[d]oxazol-5-yl)methyl)amino)ethyl)acetamide]	< 200	0.2 to 1	< 200	–
C[C@@H]1CCCN(Cc2cc(C(F)(F)F)c3oc(-c4cc(-c5ccccc5-c5nncn5C)cc(C5CC5)n4)nc3c2)C1 [AAQ-2, 2-{6-Cyclopropyl-4-[2-(4-methyl-1,2,4-triazol-3-yl)phenyl]pyridin-2-yl}-5-{[(3R)-3-methylpiperidin-1-yl]methyl}-7-(trifluoromethyl)-1,3-benzoxazole]	1000 to 10000	1 to 10	200 to 1000	–
CC(C)CNCc1cc(C(F)(F)F)c2oc(-c3cccc(-c4ccc(F)cc4-c4nncn4C)c3)nc2c1 [FX-2, N-((2-(4′-Fluoro-2′-(4-methyl-4H-1,2,4-triazol-3-yl)-[1,1′-biphenyl]-3-yl)-7-(trifluoromethyl)benzo[d]oxazol-5-yl)methyl)-2-methylpropan-1-amine]	< 200	< 0.2	< 200	–
Cn1cnnc1-c1cc(F)ccc1-c1cccc(-c2nc3cc(CN[C@@H]4CCC[C@@H]4O)cc(Br)c3o2)c1 [ER-2, (1S,2R)-2-(((7-Bromo-2-(4′-fluoro-2′-(4-methyl-4H-1,2,4-triazol-3-yl)-[1,1′-biphenyl]-3-yl)benzo[d]oxazol-5-yl)methyl)amino)cyclopentan-1-ol]	< 200	< 0.2	< 200	–
Cn1cnnc1-c1cc(F)ccc1-c1cc(-c2nc3cc(CNCC4(F)CCC4)cc(F)c3o2)nc(C2CC2)c1 [AFJ-1, [(2-{6-Cyclopropyl-4-[4-fluoro-2-(4-methyl-1,2,4-triazol-3-yl)phenyl]pyridin-2-yl}-7-fluoro-1,3-benzoxazol-5-yl)methyl][(1-fluorocyclobutyl)methyl]amine]	< 200	0.2 to 1	< 200	–
Cn1cnnc1-c1cc(F)ccc1-c1cccc(-c2nc3cc([C@@H](CO)N4CCC4)cc(C(F)(F)F)c3o2)c1 (single isomer, unassigned) [DO-7]	200 to 1000	1 to 10	< 200	–
CCNc1cc(-c2ccccc2-c2nncn2C)cc(-c2nc3cc(CN4CCC5(CC5)C4)cc(C(F)(F)F)c3[nH]2)n1 [AAG-4, 6-(6-{5-Azaspiro[2.4]heptan-5-ylmethyl}-4-(trifluoromethyl)-3H-1,3-benzodiazol-2-yl)-N-ethyl-4-[2-(4-methyl-1,2,4-triazol-3-yl)phenyl]pyridin-2-amine]	10000 to 50000	1 to 10	200 to 1000	–
